Assay results taken from the supplement of paper PMC6045584.
± gives the standard deviation of the averaged measurements.

Experiments:
[1] = compound: C[C@]1(O)C[C@@H](c2nc(-c3ccc4ccc(-c5ccccc5)nc4c3)c3c(N)nccn32)C1 [OSI-906]; experiment: surviving fraction relative to DMSO-only wells; higher = less growth inhibition; details: exposure time: 5 days
How it was run: (§1)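 Viability was determined by CellTiter-Glo luminescence, expressed as surviving fraction normalised to the median of DMSO-only wells. The cells were log-phase tumour cell lines seeded at 250–500 per well in 384-well plates and, after 24 hours, exposed continuously for five days to inhibitors at 0.5, 1, 5, 10, 50, 100, 500 and 1000 nM. Three screens per line were run, keeping only lines with replicate Pearson r >0.7 and median Z' >0.3.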

[2] = compound: CC(=O)NCC(=O)N1[C@@H]2CC[C@H]1c1ccc(Nc3ncc(C(F)(F)F)c(NC4CCC4)n3)cc12; experiment: as above; details: exposure time: 5 days
How it was run: as §1

[3] = compound: T1, CC(=O)O[C@H]1C(=O)[C@@]2(C)[C@H]([C@H](OC(=O)c3ccccc3)[C@]3(O)C[C@H](OC(=O)[C@H](O)[C@@H](NC(=O)c4ccccc4)c4ccccc4)C(C)=C1C3(C)C)[C@]1(OC(C)=O)CO[C@@H]1C[C@@H]2O [PACLITAXEL]; experiment: as above; details: exposure time: 5 days
How it was run: as §1

[4] = compound: T2, O=C(O)C1(C(=O)O)CCC1.[NH2-].[NH2-].[Pt+2] [CARBOPLATIN]; experiment: as above; details: exposure time: 5 days
How it was run: as §1

[5] = compound: T3, COc1cc2ncnc(Nc3ccc(F)c(Cl)c3)c2cc1OCCCN1CCOCC1 [GEFITINIB]; experiment: as above; details: exposure time: 5 days
How it was run: as §1

[6] = compound: CC(=O)c1c(C)c2cnc(Nc3ccc(N4CCNCC4)cn3)nc2n(C2CCCC2)c1=O; experiment: as above; details: exposure time: 5 days
How it was run: as §1

[7] = compound: T4, COCC[n+]1c2c(n(Cc3cnccn3)c1C)C(=O)c1ccccc1C2=O [YM155]; experiment: as above; details: exposure time: 5 days
How it was run: as §1

[8] = compound: T5, Cc1ccc(-c2cc(C(F)(F)F)nn2-c2ccc(S(N)(=O)=O)cc2)cc1 [CELECOXIB]; experiment: as above; details: exposure time: 5 days
How it was run: as §1

[9] = compound: T6, CC[C@@]1(O)C(=O)OCc2c1cc1n(c2=O)Cc2cc3ccccc3nc2-1 [CAMPTOTHECIN]; experiment: as above; details: exposure time: 5 days
How it was run: as §1

[10] = compound: CC(=O)NCC(=O)N1[C@@H]2CC[C@H]1c1ccc(Nc3ncc(C(F)(F)F)c(NC4CCC4)n3)cc12; experiment: area under dose-response curve of surviving fraction (unscaled, Aref=0) (surviving fraction x log10(nM)); higher = more resistant; details: exposure time: 5 days; dose range 0.5-1000 nM
How it was run: (§2)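 Surviving fractions were fitted by 3-parameter logistic regression in the drc R package to give dose-response survival curves. They came from tumour cell lines treated for five days with eight inhibitor concentrations from 0.5 to 1000 nM and read by CellTiter-Glo luminescence against DMSO-only wells. The area under the curve is the unscaled activity area. It was calculated over log10 dose with Aref = 0.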

[11] = compound: T1, PACLITAXEL; experiment: as above; details: exposure time: 5 days; dose range 0.5-1000 nM
How it was run: as §2

[12] = compound: T2, CARBOPLATIN; experiment: as above; details: exposure time: 5 days; dose range 0.5-1000 nM
How it was run: as §2

[13] = compound: CC(=O)c1c(C)c2cnc(Nc3ccc(N4CCNCC4)cn3)nc2n(C2CCCC2)c1=O; experiment: as above; details: exposure time: 5 days; dose range 0.5-1000 nM
How it was run: as §2

[14] = compound: T4, YM155; experiment: as above; details: exposure time: 5 days; dose range 0.5-1000 nM
How it was run: as §2

[15] = compound: T5, CELECOXIB; experiment: as above; details: exposure time: 5 days; dose range 0.5-1000 nM
How it was run: as §2

[16] = compound: T6, CAMPTOTHECIN; experiment: as above; details: exposure time: 5 days; dose range 0.5-1000 nM
How it was run: as §2

[17] = compound: T3, GEFITINIB; experiment: as above; details: exposure time: 5 days; dose range 0.5-1000 nM
How it was run: as §2

## SJSA1 BONE
[1]; 0.5 nM
  surviving fraction: 1.23 ± 0.051
[1]; 1 nM
  surviving fraction: 1.22 ± 0.075
[1]; 5 nM
  surviving fraction: 1.17 ± 0.2
[1]; 10 nM
  surviving fraction: 1.21 ± 0.11
[1]; 50 nM
  surviving fraction: 0.917 ± 0.21
[1]; 100 nM
  surviving fraction: 1.62 ± 0.052
[1]; 500 nM
  surviving fraction: 0.785 ± 0.31
[1]; 1000 nM
  surviving fraction: 0.388 ± 0.031
[2]; 0.5 nM
  surviving fraction: 1.06 ± 0.086
[2]; 1 nM
  surviving fraction: 1.08 ± 0.061
[2]; 5 nM
  surviving fraction: 1.08 ± 0.047
[2]; 10 nM
  surviving fraction: 1.03 ± 0.016
[2]; 50 nM
  surviving fraction: 1.07 ± 0.026
[2]; 100 nM
  surviving fraction: 0.95 ± 0.019
[2]; 500 nM
  surviving fraction: 0.6 ± 0.013
[2]; 1000 nM
  surviving fraction: 0.531 ± 0.014
[3]; 0.5 nM
  surviving fraction: 0.942 ± 0.048
[3]; 1 nM
  surviving fraction: 0.833 ± 0.041
[3]; 5 nM
  surviving fraction: 0.342 ± 0.0057
[3]; 10 nM
  surviving fraction: 0.18 ± 0.013
[3]; 50 nM
  surviving fraction: 0.135 ± 0.0021
[3]; 100 nM
  surviving fraction: 0.113 ± 0.0021
[3]; 500 nM
  surviving fraction: 0.107 ± 0.01
[3]; 1000 nM
  surviving fraction: 0.114 ± 0.017
[4]; 0.5 nM
  surviving fraction: 1.68 ± 0.11
[4]; 1 nM
  surviving fraction: 1.73 ± 0.089
[4]; 5 nM
  surviving fraction: 1.56 ± 0.12
[4]; 10 nM
  surviving fraction: 1.64 ± 0.17
[4]; 50 nM
  surviving fraction: 0.869 ± 0.07
[4]; 100 nM
  surviving fraction: 1.376 ± 0.0032
[4]; 500 nM
  surviving fraction: 1.54 ± 0.088
[4]; 1000 nM
  surviving fraction: 1.16 ± 0.17
[5]; 0.5 nM
  surviving fraction: 1.15 ± 0.059
[5]; 1 nM
  surviving fraction: 1.59 ± 0.071
[5]; 5 nM
  surviving fraction: 1.62 ± 0.018
[5]; 10 nM
  surviving fraction: 0.602 ± 0.04
[5]; 50 nM
  surviving fraction: 1.8 ± 0.065
[5]; 100 nM
  surviving fraction: 1.67 ± 0.033
[5]; 500 nM
  surviving fraction: 1.68 ± 0.052
[5]; 1000 nM
  surviving fraction: 1.68 ± 0.018
[6]; 0.5 nM
  surviving fraction: 1 ± 0.037
[6]; 1 nM
  surviving fraction: 1.01 ± 0.099
[6]; 5 nM
  surviving fraction: 1.028 ± 0.0059
[6]; 10 nM
  surviving fraction: 1.04 ± 0.049
[6]; 50 nM
  surviving fraction: 1.08 ± 0.028
[6]; 100 nM
  surviving fraction: 1.12 ± 0.013
[6]; 500 nM
  surviving fraction: 0.922 ± 0.037
[6]; 1000 nM
  surviving fraction: 0.88 ± 0.036
[7]; 0.5 nM
  surviving fraction: 1 ± 0.059
[7]; 1 nM
  surviving fraction: 1.6 ± 0.045
[7]; 5 nM
  surviving fraction: 1.46 ± 0.018
[7]; 10 nM
  surviving fraction: 1.59 ± 0.028
[7]; 50 nM
  surviving fraction: 1.7 ± 0.11
[7]; 100 nM
  surviving fraction: 1.7 ± 0.074
[7]; 500 nM
  surviving fraction: 1.6 ± 0.15
[7]; 1000 nM
  surviving fraction: 1.53 ± 0.16
[8]; 0.5 nM
  surviving fraction: 1.15 ± 0.061
[8]; 1 nM
  surviving fraction: 1.68 ± 0.074
[8]; 5 nM
  surviving fraction: 1.6 ± 0.048
[8]; 10 nM
  surviving fraction: 1.54 ± 0.045
[8]; 50 nM
  surviving fraction: 1.71 ± 0.07
[8]; 100 nM
  surviving fraction: 1.81 ± 0.054
[8]; 500 nM
  surviving fraction: 1.65 ± 0.039
[8]; 1000 nM
  surviving fraction: 1.85 ± 0.11
[9]; 0.5 nM
  surviving fraction: 1.18 ± 0.043
[9]; 1 nM
  surviving fraction: 1.2 ± 0.06
[9]; 5 nM
  surviving fraction: 1.01 ± 0.15
[9]; 10 nM
  surviving fraction: 1.2 ± 0.017
[9]; 50 nM
  surviving fraction: 1.25 ± 0.084
[9]; 100 nM
  surviving fraction: 1.11 ± 0.093
[9]; 500 nM
  surviving fraction: 1.14 ± 0.24
[9]; 1000 nM
  surviving fraction: 1.18 ± 0.083
[10]
  area under dose-response curve: 3.02
[11]
  area under dose-response curve: 1.01
[12]
  area under dose-response curve: 4.73
[13]
  area under dose-response curve: 3.43
[14]
  area under dose-response curve: 5.19
[15]
  area under dose-response curve: 5.36
[16]
  area under dose-response curve: 3.83

## SUM44 BREAST
[1]; 0.5 nM
  surviving fraction: 0.844 ± 0.044
[1]; 1 nM
  surviving fraction: 0.878 ± 0.1
[1]; 5 nM
  surviving fraction: 0.948 ± 0.047
[1]; 10 nM
  surviving fraction: 0.8813 ± 0.0072
[1]; 50 nM
  surviving fraction: 1.01 ± 0.17
[1]; 100 nM
  surviving fraction: 0.965 ± 0.14
[1]; 500 nM
  surviving fraction: 0.887 ± 0.18
[1]; 1000 nM
  surviving fraction: 0.862 ± 0.13
[2]; 0.5 nM
  surviving fraction: 1.04 ± 0.039
[2]; 1 nM
  surviving fraction: 0.997 ± 0.013
[2]; 5 nM
  surviving fraction: 1.09 ± 0.028
[2]; 10 nM
  surviving fraction: 1.06 ± 0.13
[2]; 50 nM
  surviving fraction: 1.09 ± 0.025
[2]; 100 nM
  surviving fraction: 1.27 ± 0.045
[2]; 500 nM
  surviving fraction: 1.4 ± 0.056
[2]; 1000 nM
  surviving fraction: 1.26 ± 0.051
[3]; 0.5 nM
  surviving fraction: 0.927 ± 0.021
[3]; 1 nM
  surviving fraction: 0.515 ± 0.041
[3]; 5 nM
  surviving fraction: 0.403 ± 0.0066
[3]; 10 nM
  surviving fraction: 0.278 ± 0.0095
[3]; 50 nM
  surviving fraction: 0.241 ± 0.019
[3]; 100 nM
  surviving fraction: 0.213 ± 0.0074
[3]; 500 nM
  surviving fraction: 0.218 ± 0.0062
[3]; 1000 nM
  surviving fraction: 0.202 ± 0.011
[4]; 0.5 nM
  surviving fraction: 1.15 ± 0.28
[4]; 1 nM
  surviving fraction: 1.05 ± 0.14
[4]; 5 nM
  surviving fraction: 1.16 ± 0.23
[4]; 10 nM
  surviving fraction: 1.01 ± 0.2
[4]; 50 nM
  surviving fraction: 1.28 ± 0.27
[4]; 100 nM
  surviving fraction: 1.11 ± 0.1
[4]; 500 nM
  surviving fraction: 1.2 ± 0.25
[4]; 1000 nM
  surviving fraction: 1.07 ± 0.079
[5]; 0.5 nM
  surviving fraction: 1.27 ± 0.43
[5]; 5 nM
  surviving fraction: 1.2 ± 0.32
[5]; 10 nM
  surviving fraction: 1.19 ± 0.23
[5]; 50 nM
  surviving fraction: 1.45 ± 0.42
[5]; 100 nM
  surviving fraction: 1.33 ± 0.32
[5]; 500 nM
  surviving fraction: 1.33 ± 0.49
[5]; 1000 nM
  surviving fraction: 1.14 ± 0.22
[6]; 0.5 nM
  surviving fraction: 0.984 ± 0.044
[6]; 1 nM
  surviving fraction: 1.01 ± 0.028
[6]; 5 nM
  surviving fraction: 1.03 ± 0.062
[6]; 10 nM
  surviving fraction: 0.956 ± 0.044
[6]; 50 nM
  surviving fraction: 1.08 ± 0.1
[6]; 100 nM
  surviving fraction: 1.05 ± 0.043
[6]; 500 nM
  surviving fraction: 1.08 ± 0.068
[6]; 1000 nM
  surviving fraction: 1.086 ± 0.0082
[7]; 0.5 nM
  surviving fraction: 1.05 ± 0.16
[7]; 1 nM
  surviving fraction: 1.15 ± 0.24
[7]; 5 nM
  surviving fraction: 1.1 ± 0.2
[7]; 10 nM
  surviving fraction: 1 ± 0.27
[7]; 50 nM
  surviving fraction: 0.358 ± 0.12
[7]; 100 nM
  surviving fraction: 0.225 ± 0.055
[7]; 500 nM
  surviving fraction: 0.121 ± 0.049
[7]; 1000 nM
  surviving fraction: 0.125 ± 0.064
[8]; 0.5 nM
  surviving fraction: 1.28 ± 0.4
[8]; 1 nM
  surviving fraction: 1.25 ± 0.47
[8]; 5 nM
  surviving fraction: 1.35 ± 0.54
[8]; 10 nM
  surviving fraction: 1.26 ± 0.34
[8]; 50 nM
  surviving fraction: 1.36 ± 0.47
[8]; 100 nM
  surviving fraction: 1.46 ± 0.53
[8]; 500 nM
  surviving fraction: 1.35 ± 0.5
[8]; 1000 nM
  surviving fraction: 1.37 ± 0.42
[9]; 0.5 nM
  surviving fraction: 0.808 ± 0.15
[9]; 1 nM
  surviving fraction: 0.813 ± 0.082
[9]; 5 nM
  surviving fraction: 0.835 ± 0.11
[9]; 10 nM
  surviving fraction: 0.846 ± 0.056
[9]; 50 nM
  surviving fraction: 0.985 ± 0.12
[9]; 100 nM
  surviving fraction: 0.927 ± 0.096
[9]; 500 nM
  surviving fraction: 0.326 ± 0.038
[9]; 1000 nM
  surviving fraction: 0.231 ± 0.048
[10]
  area under dose-response curve: 3.75
[11]
  area under dose-response curve: 1.04
[12]
  area under dose-response curve: 3.73
[17]
  area under dose-response curve: 4.14
[13]
  area under dose-response curve: 3.41
[14]
  area under dose-response curve: 2.05
[15]
  area under dose-response curve: 4.41
[16]
  area under dose-response curve: 2.82
